Measured values: patent US20180363044A1, “COMPOSITIONS AND METHODS FOR IMPROVING THE THERMAL STABILITY OF NUCLEIC ACID AMPLIFICATION REAGENTS” (Roche Molecular Systems, Inc., priority 2017, published 2018)

Test: Stability study: heat stress storage, UPLC analysis of degradation
Assay type: physicochemical
Procedure: Samples containing either 1 mM deoxyadenosine triphosphate (dATP), or 1 mM deoxyadenosine tetraphosphate (dA4P) or 1 mM dATP+1 mM dA4P were suspended in a buffer containing 40% DMSO/0.75M KOAc were stored for 18 hours at either 65° C. The samples were then run in a UPLC column and analyzed for degradation of the starting products.

For deoxyadenosine tetraphosphate [dA4P], which active substrate remaining (1 mM in buffer containing 40% DMSO/0.75M KOAc, stored 18 hours at 65° C., UPLC) is on record?
The active substrate remaining was “approximately 70%”.

With Nc1ncnc2c1ncn2[C@H]1C[C@H](O)[C@@H](COP(=O)(O)OP(=O)(O)OP(=O)(O)O)O1 [dATP, deoxyadenosine triphosphate] as the compound, how does the active substrate remaining (buffer, 18 h, 1 mM) read?
The active substrate remaining was 51%.
